Consider six compounds from publication PMC7024313, “Identification and Repurposing of Trisubstituted Harmine Derivatives as Novel Inhibitors of Mycobacterium tuberculosis Phosphoserine Phosphatase” (Molecules, 2020).

The target of the first experiment is T1, SerB2 (M. tuberculosis phosphoserine phosphatase) (Mycobacterium tuberculosis, UniProt O53289). The experiment in a line: malachite green phosphatase assay. It counts as biochemical. From the text: malachite green phosphatase assay on SerB2 (M. tuberculosis phosphoserine phosphatase)
T1 sequence (O53289 whole entry): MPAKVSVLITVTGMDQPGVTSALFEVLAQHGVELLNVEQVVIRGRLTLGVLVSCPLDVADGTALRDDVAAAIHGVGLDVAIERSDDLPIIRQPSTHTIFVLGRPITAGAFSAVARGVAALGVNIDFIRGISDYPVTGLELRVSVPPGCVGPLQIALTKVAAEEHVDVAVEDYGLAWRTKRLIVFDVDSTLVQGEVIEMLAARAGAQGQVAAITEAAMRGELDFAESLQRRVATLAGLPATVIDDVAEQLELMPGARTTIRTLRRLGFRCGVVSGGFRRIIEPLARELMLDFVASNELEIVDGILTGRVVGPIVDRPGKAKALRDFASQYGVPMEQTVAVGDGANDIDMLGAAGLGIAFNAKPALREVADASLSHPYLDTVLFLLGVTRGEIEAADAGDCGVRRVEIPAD
With `Cc1c2c(cc[n+]1CCc1ccccc1)c1ccc(OCc3ccccc3)cc1n2Cc1ccccc1` [compound 94, 94], testing at 10 µM gave an inhibition of 15.6 ± 4.3%.
On the same count and under the same terms, the figure for `Cc1c2c(cc[n+]1CCC(C)C)c1ccc(OCC3CCCCC3)cc1n2CC1CCCCC1` [compound 90, 90] is 16.5 ± 13.3%.

The next experiment has as its target T1, SerB2 (M. tuberculosis phosphoserine phosphatase). Description: malachite green phosphatase assay, slope replot fitted to Hill-type model. It counts as biochemical. An excerpt:
malachite green phosphatase assay, slope replot fitted to Hill-type model on SerB2 (M. tuberculosis phosphoserine phosphatase)
Turning to `Cc1c2c(cc[n+]1CCc1ccccc1)c1ccc(OCC3CCCCC3)cc1n2CC1CCCCC1` [compound 91, 91], the affinity corresponds to a Ki of 3.27 ± 0.12 µM.
Still for that read-out and setting: the same measure for `Cc1c2c(cc[n+]1CCC1CCCCC1)c1ccc(OCC3CCCCC3)cc1n2CC1CCCCC1` [compound 124, 7-(cyclohexylmethoxy)-9-(cyclohexylmethyl)-1-methyl-2-(2-cyclohexylethyl)-β -carboline-2-ium bromide]: 1.75 ± 0.11 µM; for `Cc1c2c(cc[n+]1CCC(C)C)c1ccc(OCCC(C)C)cc1n2CCC(C)C` [compound 88, 88]: 18.3 ± 2.3 µM.
The same measure, in the same setting: the same measure for `Cc1c2c(cc[n+]1Cc1ccc3ccccc3c1)c1ccc(OCc3ccccc3)cc1n2Cc1ccccc1` [compound 95, 95]: 6.66 ± 0.39 µM.
